One assay relates to L1210 murine leukemia. Briefly: L1210 murine leukemia test (survival of tumor-bearing mice). The assay is classed as in vivo, mouse. Particulars: i.p. once daily for nine days from day 1. The method, then: The L1210 tumor line originated in 1948 as a lymphocytic leukemia in a female DBA/2 mouse after the skin was treated with 0.2% 20-methylcholanthrene in ethyl ether. The tumor line is maintained by serial passage in female DBA/2 mice. On day 0, female CDF1 mice weighing 18-22 g are inoculated with 1×10^5 L1210 leukemia cells harvested from the ascites of DBA/2 mice. The mice are randomized into groups of six each and the test compounds and vehicle control are administered intraperitoneally once daily for nine consecutive days beginning on day 1. A ≥20% decrease in body weight on day 5 is considered an indication of toxicity. The acceptable control mean survival time is 8-11 days. Results are expressed as a percentage of the mean survival time of the vehicle-treated control group according to the formula: [formula] Mice which survive for 30 days are considered cured and are not included in the calculation of the mean survival time. The NCI criteria for activity are used. A compound is considered to have moderate activity against L1210 leukemia if it has a % T/C ≥125%, and it is considered to have good activity if it has a % T/C ≥150%.

The test system of assay [1] is LOX human amelanotic melanoma. Briefly: LOX human amelanotic melanoma xenograft test in athymic nude mice. The note with it: for % T/C (median survival time vs vehicle control): i.p. every fourth day, three injections. The assay is classed as in vivo. The text has this:
The LOX human amelanotic melanoma tumor line was obtained from Dr. Oystein Fodstad, Department of Biochemistry, Norwegian Radium Hospital, Oslo, Norway. The line is maintained by serial passage in athymic NCR-NU mice. On day 0, athymic nude mice, all of one sex weighing a minimum of 18 g for males and 17 g for females, are inoculated intraperitoneally with 1×10^6 LOX melanoma cells harvested from the ascites of athymic mice. The mice are randomized into groups of six each and the test compounds and vehicle control are administered intraperitoneally every fourth day beginning day 1 for a total of three injections. Animals are evaluated for toxicity on day 10. A decrease in body weight ≥20% is considered an indication of toxicity. The acceptable control median survival time is 17-24 days. Results are expressed as a percentage of the median survival time of the vehicle-treated control group according to the formula: [formula]
The NCI criteria for activity are used. A compound is considered to have moderate activity against LOX melanoma if it has a % T/C ≥140%, and it is considered to have good activity if it has a % T/C ≥200%.
(In general: A xenograft is tissue or cells of one species grown in another, often human tumour cells in immunodeficient mice.)

In the next assay the test system is P388 murine leukemia. The experiment in a line: P388 murine leukemia test (survival of tumor-bearing mice). In kind it is in vivo, mouse. Particulars: i.p. once daily for nine days from day 1. As to the method:
The P388 tumor line originated in 1955 as a lymphocytic leukemia in a female DBA/2 mouse after the skin was painted with 3-methylcholanthrene. The tumor line is maintained by serial passage in female DBA/2 mice. On day 0, female CDF1 mice weighing 18-22 g are inoculated intraperitoneally with 1×10^6 P388 leukemia cells harvested from the ascites of DBA/2 mice. The mice are randomized into groups of six each and the test compounds and vehicle control are administered intraperitoneally once daily for nine consecutive days beginning day 1. A decrease in body weight on day 5 that is ≥20% is considered an indication of toxicity. The acceptable control mean survival time is 9-14 days. Results are expressed as a percentage of the mean survival time of the vehicle-treated control group according to the formula: [formula] Mice which survive for 30 days are considered cured and are not included in the calculation of the mean survival time. The NCI criteria for activity are used. A compound is considered to have moderate activity against P388 leukemia if it has a % T/C ≥125%, and it is considered to have good activity if it has a % T/C ≥150%.

Assay [2] concerns RPMI-7272 human melanoma cells. The experiment in a line: In vitro RPMI-7272 human melanoma cell growth inhibition. The assay is classed as cell-based. The note with it: RPMI-7272 melanoma, inhibition of cell doublings by 50%, 72 h, read-out: ID50 (the source's name). As to the method: The compounds of this invention were also tested for their ability to inhibit the growth of human melanoma RPMI-7272 cells in vitro. Human melanoma RPMI-7272 cells (Quinn et al. [J. Natl. Cancer Inst. 59, 301-305 (1977)]) were propagated in RPMI-1640 medium supplemented with 10 mM Tricine (pH 7.8), 10 mM HEPES (pH 7.3), 0.075% sodium bicarbonate, and 10% (vol/vol) heat-inactivated (56° C., 30 minutes) fetal bovine serum in a 95% air:5% CO2 humidified atmosphere. Cells were seeded at 3×10^5 per 35 mm plate to initiate growth inhibition studies. Cultures to receive growth medium only (control cultures) were set up in quadruplicate; cultures to receive varying concentrations of compounds were set up at one dish per dose of compound. Twenty-four hours post-seeding, duplicate control cell cultures were trypsinized and cells were counted using a Coulter Counter (day 1 control counts). At this time, varying concentrations of test compounds, from 100 to 0.00001 μg/mL were added to cultures and growth medium only was added to control cultures. Seventy-two hours after the addition of compound, cells were trypsinized and counted. The numbers of cell population doublings (day 4) in the presence or absence of compound were calculated. The ID50 represents the dose of compound (in μg/mL) required to inhibit the number of cell doublings by 50%. A compound is considered to have in vitro activity against RPMI-7272 melanoma if it has an ID50 ≤1 μg/mL. The number of population doublings of control cultures during 72 hours was between 3 and 4. […] Dilutions to 1 mg/mL in complete growth medium were made, followed by stock preparations of 100 and 30 μg/mL in complete growth medium. Serial ten-fold dilutions in complete medium were formulated from the 100 and 30 μ g/mL stocks, respectively, and added to cultures.

The test system of another assay is B16 murine melanoma. The experiment in a line: B16 murine melanoma test (survival of tumor-bearing mice). In kind it is in vivo, mouse. Particulars: i.p. once daily for nine days from day 1. The method, then: The B16 tumor line arose spontaneously in 1954 on the skin at the base of the ear of a C57BL mouse. The tumor line is maintained by serial passage in female C57BL mice. On day 0, female B6C3F1 mice are inoculated intraperitoneally with 0.5 mL of a 10% tumor brei. This brei is prepared by homogenizing fresh B16 tumors, grown subcutaneously in C57BL mice, in cold physiological saline. Mice are randomized in groups of ten each, with 20 animals being in the control group. The test compounds and vehicle control are administered intraperitoneally once daily for nine consecutive days beginning on day 1. A ≥20% decrease in body weight on day 5 is considered an indication of toxicity. The acceptable mean control survival time is 14-22 days. Results are expressed as a percentage of the mean survival time of the vehicle-treated control group according to the formula: [formula] Mice which survive 90 days are considered cured and are not included in the calculation of the mean survival time. The NCI criteria for activity are used. A compound is considered to have moderate activity against B16 melanoma if it has a % T/C ≥125%, and it is considered to have good activity if it has a % T/C ≥150%.

18 compounds from patent US4942163A, “1(2H)-isoquinolinones and 1-isoquinolineamines as cancer chemotherapeutic agents” (E. I. Du Pont de Nemours and Company, priority 1989, dated 1990) can be followed below.

In brackets after ≈: the same amount, converted by molar mass.

Take `O=c1[nH]c(-c2cccc3ccccc23)cc2ccccc12` [Example 1, 3-(1-Naphthalenyl)-1(2H)-isoquinolinone]: the “% T/C (mean survival time vs vehicle control)” value in the assay with L1210 murine leukemia (dose 100 mg/kg) is 148%. Besides, in assay [1] (dose 400 mg/kg), the “Cures (number of survivors/total at 60 days)” value is given as 1/6 and the “% T/C (median survival time vs vehicle control)” value is 168%. Moreover, the “% T/C (mean survival time vs vehicle control)” value in the assay with P388 murine leukemia (dose 200 mg/kg) is 161%.
In the case of `O=c1[nH]c(-c2cccc3ccccc23)cc2ccc(Cl)cc12` [Example 2, 7-chloro-3-(1-naphthalenyl)-1(2H)-isoquinolinone], the IC50 in assay [2] was found to be 0.005 mg/L (≈ 0.0164 µM). Moreover, in the assay with P388 murine leukemia (dose 100 mg/kg), the “% T/C (mean survival time vs vehicle control)” value is given as 138%.
On to `Cc1ccc2cc(-c3cccc4ccccc34)[nH]c(=O)c2c1` [Example 3, 7-Methyl-3-(1-naphthalenyl)-1(2H)-isoquinolinone], for which the IC50 in assay [2] turned out to be 0.0072 mg/L (≈ 0.0252 µM). Moreover, the “% T/C (mean survival time vs vehicle control)” value was found to be 133% in the assay on L1210 murine leukemia (dose 200 mg/kg), 152% in the assay on P388 murine leukemia (dose 100 mg/kg) and 149% in the assay on B16 murine melanoma (dose 100 mg/kg). Besides, the “Cures (number of survivors/total at 60 days)” value in assay [1] (dose 240 mg/kg) is given as 2/6. In assay [1] (dose 240 mg/kg), the “% T/C (median survival time vs vehicle control)” value is on record as 271%.
For `CN(C)c1ccc2cc(-c3cccc4ccccc34)[nH]c(=O)c2c1.Cl` [Example 4, 7-(Dimethylamino)-3-(1-naphthalenyl)-1(2H)-isoquinolinone hydrochloride], the IC50 in assay [2] was 0.001 mg/L. Further, in the assay with L1210 murine leukemia (dose 6 mg/kg), the “% T/C (mean survival time vs vehicle control)” value was 156%.
`C[N+](C)(C)c1ccc2cc(-c3cccc4ccccc34)[nH]c(=O)c2c1` [Example 5]: the IC50 in assay [2] was 0.055 mg/L.
In the case of `Cc1cccc2c(=O)[nH]c(-c3cccc4ccccc34)cc12` [Example 7], the IC50 in assay [2] turned out to be 0.29 mg/L (≈ 1.02 µM).
For `Cc1ccc2c(=O)[nH]c(-c3cccc4ccccc34)cc2c1` [Example 9], in assay [2], the IC50 was 0.0016 mg/L (≈ 0.00561 µM).
The same measure, in the same setting: to `Cc1cccc2cc(-c3cccc4ccccc34)[nH]c(=O)c12` [Example 15] belongs 0.53 mg/L (≈ 1.86 µM); to `Nc1nc(-c2cccc3ccccc23)cc2ccccc12` [Example 16], 0.22 mg/L (≈ 0.814 µM); to `Cc1cccc2c(N)nc(-c3cccc4ccccc34)cc12` [Example 18], 0.95 mg/L (≈ 3.34 µM).
On to `Nc1nc(-c2cccc3ccccc23)cc2cc(Cl)ccc12` [Example 19], for which, in assay [2], the IC50 amounted to 0.055 mg/L (≈ 0.18 µM).
In the case of `Cc1ccc2c(N)nc(-c3cccc4ccccc34)cc2c1` [Example 20, 6-Methyl-3-(1-naphthalenyl)-1-isoquinolineamine], the IC50 in assay [2] was 0.00077 mg/L (≈ 0.00271 µM). The “% T/C (mean survival time vs vehicle control)” value in the assay with B16 murine melanoma (dose 6 mg/kg) is on record as 130%.
Take `Nc1nc(-c2cccc3ccccc23)cc2ccc(Cl)cc12` [Example 21, 7-Chloro-3-(1-naphthalenyl)-1-isoquinolineamine]: in assay [2], the IC50 was 0.0094 mg/L (≈ 0.0308 µM). In addition, the “% T/C (mean survival time vs vehicle control)” value in the assay with B16 murine melanoma (dose 100 mg/kg) is 138%.
`Cc1ccc2cc(-c3cccc4ccccc34)nc(N)c2c1` [Example 22]: the IC50 in assay [2] is 0.0016 mg/L (≈ 0.00563 µM).
As for `Nc1nc(-c2cccc3ccccc23)cc2cccc(Cl)c12` [Example 23], the IC50 in assay [2] was found to be 0.07 mg/L (≈ 0.23 µM).
Still for that read-out and setting: in the case of `Cc1cccc2cc(-c3cccc4ccccc34)nc(N)c12` [Example 24] it was 0.05 mg/L (≈ 0.176 µM).
Regarding `Cc1ccc2cc(-c3cccc4ccccc34)nc(N3CCN(C)CC3)c2c1` [Example 31, 7-Methyl-1-(4-methyl-1-piperazinyl)-3-(1-naphthalenyl)-isoquinoline], the “% T/C (mean survival time vs vehicle control)” value in the assay with B16 murine melanoma (dose 6 mg/kg) is 133%.
Consider `Cc1ccc2cc(-c3cccc4ccccc34)nc(N(C)CCN(C)C)c2c1` [Example 40, N,N,N'-Trimethyl-N'-(7-methyl-3-(1-naphthalenyl)-1-isoquinolinyl)-1,2-ethanediamine], for which the “% T/C (mean survival time vs vehicle control)” value with B16 murine melanoma (dose 0.75 mg/kg) is 135%.
